Columns and labels:
[1] = system: inflammation induced by an egg-white albumin-adjuvant system; assay: Anti-inflammatory activity test (swelling of subplantar region of right hind paw); assay type: in vivo, SD rats; details: oral, 10 mg/weight-kg, 0.5 hour before inflammation inducer; measured 0.5, 1, 2, 3 and 4 hours after; Fig. 1
Experimental: As a test group, a comparison group and a control group, 5 male SD rats weighing 180 to 220 g were used per group. Each rat was measured for a size (volume) of the subplantar region of the right hind paw.
This aluminum hydroxide was used as an adjuvant. Per rat, a solution obtained by suspending 4 mg of the adjuvant and 0.2 mg of egg-white albumin in 0.1 ml of pertussis vaccine was prepared as an inflammation inducer.
0.5 Hour after the administration, the inflammation inducer was intracutaneously administered into the subplantar region of the right hind paw of each rat to induce swelling.
Then, 0.5, 1, 2, 3 and 4 hours after the administration of the inflammation inducer, each rat was measured for a size (volume) of the subplantar region of the right hind paw by volumetry. […] [formula] Ps: Measurement value of volume of subplantar region at a measurement time (average of the group). Po: Measurement value of volume of subplantar region before administration of inflammation inducer (average of the group).
Each rat of the control group was orally administered with a 10 % Nikkol-containing physiological saline solution in place of the 10 % Nikkol-containing physiological saline solution containing 2',4'-dihydroxychalcone. Thereafter, the same procedures as those for the test group were repeated to determine the swelling as a group.

[2] = Ultraviolet light absorption maximum and absorbance in ethanol solution; assay type: physicochemical
sunburn [3] = assay: Ultraviolet screening test (ointment on skin exposed to direct sunlight); assay type: in vivo, normally healthy persons; details: 10 mg ointment containing 1 wt.%, femoral region, 10 persons, direct sunlight 2 hours and 30 minutes
sunburn [4] = assay: as above; assay type: in vivo, normally healthy persons; details: 10 mg ointment containing 1 wt.%, femoral region, 10 persons, direct sunlight 2 hours and 30 minutes; remark: listed apart in the source
Experimental: 10 Milligrams of the ointment containing 1 wt.% of the known chalcone derivative in Example 14, obtained in Example 15, 10 mg of an ointment containing 1 wt.% of p-aminobenzoic acid as a control, obtained in the same manner as in Example 15 except for the use of p-aminobenzoic acid in place of the above known chalcone derivative (to be abbreviated as AO in Table 3 which will follow), and 10 mg of the same hydrophilic ointment as that used in Example 15 (to be abbreviated as HO in Table 2 which will follow) were respectively applied to the femoral region of each of normally healthy persons (10 persons) such that these became circular forms having nearly the same size. Then, these applied portions were exposed to direct sunlight outdoors in fine weather for 2 hours and 30 minutes.
After the exposure, each applied portion was visually observed. The portions where clear sunburn was recognized were taken as +, the portions where slight sunburn was recognized were taken as ±, and the portions where almost no change was recognized were taken as -. The test substances were so evaluated on their ultraviolet screening effects.
The ointment containing 1 wt.% of the novel chalcone derivative of Example 1, obtained in Example 15, the ointment containing 1 wt.% of the novel chalcone derivative of Example 1, the ointment containing 1 wt.% of the novel chalcone derivative of Example 2, the ointment containing 1 wt.% of the novel chalcone derivative of Example 4, the ointment containing 1 wt.% of the novel chalcone derivative of Example 6 and the ointment containing 1 wt.% of the known chalcone derivative of Example 9 were respectively similarly tested on their ultraviolet screening effects. However, the exposure time outdoors in fine weather was set for 1 hour. […]

[5] = system: lipid peroxidation reaction of liver microsome; assay: Cell protection activity test (inhibition of lipid peroxidation, thiobarbituric acid method); assay type: biochemical, rat; details: 37° C 20 minutes, n = 3 - 5
Experimental: Cell impairment caused by a radical reaction of an organic compound is known as one of optical affections on the skin.
First, rat liver microsome was obtained by a conventional method, and then, suspended in 1.15 % KCl to prepare a microsome suspension.
Then, the above microsome suspension in an amount of 2 mg as protein was added to a tris-HCl buffer (pH 7.4) containing NADPH (final concentration 0.2 mM), ADP (final concentration 1 mM) and FeCl₃ (final concentration 10 µM). And, 10 µl of a dimethylformamide (DMF) solution of a test compound was added so that the total amount was 1 ml, and the resultant mixture was warmed at 37° C for 20 minutes. The test compound was added such that the final concentration became 10⁻⁴M or 10⁻⁵M.
Thereafter, the amount of formed peroxidation lipid was measured by a thiobarbituric acid method. The inhibition activity of the test compound is expressed in terms of an inhibition ratio (%) in comparison with a control group. […] In addition, in the control group, 10 µl of DMF was used in place of 10 µl of the DMF solution of the test compound.

[6] = system: rat abdominal cavity exudate mast cell; assay: Anti-allergic activity test (inhibition of free histamine from mast cell, concanavalin A as freeing agent); assay type: cell-based, SD rat; details: 10 min, concentration of 0.03 mM, n = 5, read-out: free histamine inhibition ratio
Experimental: At first, an abdominal cavity exudate mast cell of an SD rat was obtained by a conventional method. Then, the above-obtained abdominal cavity mast cell was floated on a Locke solution, and a test substance in a predetermined concentration and phosphatidylcerine (final concentration 3 µg/ml) were added. The mixture was warmed up to 37° C, and after concanavalin A as a freeing agent was added, the mixture was maintained at 37° C for 10 minutes. Thereafter, the reaction solution was centrifugally separated to a sediment portion and a supernatant portion, and the histamine amount of each of these portions was quantitatively determined by an orthophthalaldehyde method. In addition, as a test substance, a dimethylformamide solution (final concentration 0.03 mM) of 3 mM 2',4'-dihydroxychalcone and a DMF solution (final concentration 0.03 mM) of an anti-inflammatory drug (Azelastine) were used. The free histamine ratio was calculated on the basis of the following equation. In control, the solvent alone was added. [formula] Ps: Histamine amount in sediment portion Pr: Histamine amount in supernatant portion. The free histamine inhibition ratio of the test substance was calculated on the basis of the following equation. [formula] S: Free histamine ratio when test substance is added. C: Free histamine ratio when no test substance is added (control). […]

[7] = system: notal skins of Hartley guinea pigs; assay: Safety test (ointment on skin under adhesive plaster, histological observation); assay type: in vivo; details: 10 mg ointment containing 5 wt.%, covered with adhesive plaster for 24 hours or 72 hours
Experimental: 10 milligrams of the ointment containing 5 wt.% of the known chalcone derivative of Example 14, obtained in Example 16, was applied to the notal skins of Hartley guinea pigs, and the applied portions were covered with an adhesive plaster for 24 hours or 72 hours.

## O=C(/C=C/c1ccccc1)c1ccc(O)cc1O [Example 14, 2',4'-dihydroxychalcone]
[1]
  inhibition of swelling: significantly inhibited swelling
[2]; Fig. 2
  ultraviolet absorption spectrum (in words): has an absorption band in most of the wavelength regions of Dorno's ray and long-wavelength ultraviolet light
[2]; concentration of 10 μg/ml in an ethanol solution, 300 nm
  Absorbance 300 nm: 0.65~0.75
[2]; concentration of 10 μg/ml in an ethanol solution, 350 nm
  Absorbance 350 nm: 0.60~0.70
[2]; concentration of 10 μg/ml in an ethanol solution, at UVmax
  Absorbance UVmax: 0.70~0.80
[2]; ultraviolet light absorption maximum
  UVmax: 306 nm
Sunburn [3]
  numbers of persons + (Almost no change): 9 persons
Sunburn [4]
  numbers of persons + (Clear sunburn was recognized): 0 persons
  numbers of persons - (Slight sunburn was recognized): 1 persons
[5]; 10^-5 concentration, 10 µM
  Inhibition ratio 10^-5 concentration: 90 % or more
[5]; final concentration 10^-4M, 100 µM
  Inhibition ratio 10^-4M concentration: 90 % or more
[6]
  inhibition at 30 µM: 56.9 ± 12.8%
[7]
  histological comparison of skin of applied portion and skin of normal portion: no difference between these two portions

Reference: patent EP0502205A1, “CHALCONE DERIVATIVE AND ULTRAVIOLET SCREENING COSMETIC” (NIPPON HYPOX LABORATORIES INCORPORATED, priority 1990, dated 1992)
